Source: PMC8225008, “Development of Non-Ethoxypropanoic Acid Type Cryptochrome Inhibitors with Circadian Molecular Clock-Enhancing Activity by Bioisosteric Replacement” (Pharmaceuticals, 2021)

Tests used:
E-box-LUC reporter = assay: E-box-LUC luciferase reporter assay, dose-response in stably transfected NIH3T3 cells; format: cell-based; details: Mus musculus, E-box-LUC reporter activity, NIH3T3, 36 h; for Emax: maximum response as a percentage of the vehicle-treated group, read-out: Max (%)
Experimental: Materials for cell culture were purchased from Thermo Fisher Scientific, unless otherwise stated. NIH3T3 and HEK293T cells were maintained in Dulbecco’s modified Eagle medium supplemented with 5% fetal bovine serum and 100 U/mL penicillin/streptomycin in a humidified atmosphere containing 5% CO2 at 37 °C. Plasmids and transfection experiments for luciferase reporter assay were described in our previous report. For dose-response experiments, mouse NIH3T3 cells stably transfected with an E-box-LUC reporter were plated in 12-well culture plates, treated as indicated for 36 h, and subjected to luciferase assay. For transient transfections, we seeded HEK293T cells in 12-well culture plates and used Lipofectamine® 3000 reagent to transfect cells with the E-box-LUC reporter and the indicated clock gene expression plasmids together with a thymidine kinase promoter-driven Renilla luciferase (pRL-TK) plasmids. We kept total DNA levels constant by adding an empty pcDNA3.1 plasmid. After 24 h of transfection, cells were treated with vehicle (0.1% DMSO) or chemical compounds at various concentrations for 36 h. Cell extracts were prepared by incubating cells in 0.3 mL reporter lysis buffer for 15 min at room temperature. Luciferase activity was measured with a commercial dual luciferase assay kit (Promega, Madison, WI, USA).
(§1) The EC50 values for luciferase reporter assay were calculated based on a logistic four-parametric equation using the mean values of intrinsic activation (SigmaPlot 10.0; Systat Software Inc., San Jose, CA, USA). The IC50 and t1/2 values for the cytochrome P450 inhibition assay and metabolic stability test were calculated by WinNonlin software (Pharsight, Mountain View, CA, USA). Pharmacokinetic parameters were calculated using non-compartmental analysis (WinNonlin v.8.3; Pharsight, Mountain View, CA, USA). Kinetic and equilibrium constants for SPR analysis were obtained by global fitting of the Langmuir 1:1 bimolecular kinetic model (ProteOn Manager v.3.1.0.6, Bio-Rad, Hercules, CA, USA). Circadian molecular clock-enhancing activities were expressed as means ± SE and statistically evaluated by Student’s t-test or one-way analysis of variance (ANOVA) followed by Newman–Keuls multiple comparison test for post hoc comparisons. The significance level for the analyses was set at p < 0.05.

CYP1A2 = molecular target: T1, CYP1A2 (Homo sapiens, UniProt P05177); assay: Cytochrome P450 inhibition assay (cocktail method, human liver microsomes), phenacetin O-deethylation; format: in vitro ADME
T1 construct: pooled human liver microsomes (HLMs, XTreme 200, XenoTech, Lenexa, KS, USA); tissue XenoTech XTreme 200; host or cells: pooled human liver microsomes
T1 sequence (P05177 1-516): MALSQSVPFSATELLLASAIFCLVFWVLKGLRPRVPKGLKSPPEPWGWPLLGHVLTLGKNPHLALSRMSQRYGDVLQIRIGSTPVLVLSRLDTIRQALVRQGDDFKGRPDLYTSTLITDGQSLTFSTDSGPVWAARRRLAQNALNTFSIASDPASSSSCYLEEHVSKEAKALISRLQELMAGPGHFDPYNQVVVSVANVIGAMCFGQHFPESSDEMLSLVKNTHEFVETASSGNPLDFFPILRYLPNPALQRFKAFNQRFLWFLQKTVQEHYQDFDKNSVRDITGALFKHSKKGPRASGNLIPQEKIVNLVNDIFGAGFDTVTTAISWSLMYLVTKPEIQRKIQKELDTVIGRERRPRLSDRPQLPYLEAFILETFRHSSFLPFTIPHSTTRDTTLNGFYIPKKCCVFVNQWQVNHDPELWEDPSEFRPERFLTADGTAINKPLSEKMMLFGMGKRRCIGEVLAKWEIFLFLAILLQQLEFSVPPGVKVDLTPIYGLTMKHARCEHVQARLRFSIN
Experimental: (§2) The inhibitory effects of KS15 and compound 5d on the metabolism of five cytochrome P450 (P450) probe substrates were evaluated using previous methods with slight modifications. The following P450 probe substrates were used: phenacetin (100 μM) for CYP1A2, tolbutamide (100 μM) for CYP2C9, omeprazole (20 μM) for CYP2C19, dextromethorphan (5 μM) for CYP2D6, and midazolam (5 μM) for CYP3A. Incubation mixtures containing pooled human liver microsomes (HLMs, XTreme 200, XenoTech, Lenexa, KS, USA), P450 probe substrates, and KS15 or compound 5d (final concentrations: 0, 0.5, 2, 5, 20, and 50 μM) were preincubated for 5 min at 37 °C. […] After centrifugation at 18,000× g (5 min, 4 °C), supernatant aliquots were analyzed by liquid chromatography-tandem mass spectrometry (LC-MS/MS). […]
(§3) All metabolites and IS were separated on a Kinetex C18 column (100 mm × 2.1 mm, 2.6 μm ID., Phenomenex, Torrance, CA, USA) and analyzed using an LC-MS/MS system (LCMS 8060, Shimadzu, Tokyo, Japan) equipped with an electrospray ionization (ESI) interface. […]
(§4) The EC50 values for luciferase reporter assay were calculated based on a logistic four-parametric equation using the mean values of intrinsic activation (SigmaPlot 10.0; Systat Software Inc., San Jose, CA, USA). […] Pharmacokinetic parameters were calculated using non-compartmental analysis (WinNonlin v.8.3; Pharsight, Mountain View, CA, USA). […]

CYP3A = assay: Cytochrome P450 inhibition assay (cocktail method, human liver microsomes), midazolam 1'-hydroxylation; format: in vitro ADME; details: pooled human liver microsomes, probe midazolam (5 μM)
Experimental: as §2, §3, §4

[1] = Metabolic stability test in pooled human liver microsomes; format: in vitro ADME; details: pooled HLMs 1.0 mg/mL, 1 μM compound, NADPH generating system, read-out: t1/2 in HLMs
Experimental: The metabolic stability of KS15, 5d, or 2d was evaluated using pooled HLMs. Pooled HLMs (1.0 mg/mL), a potassium phosphate buffer, and a test compound (1 μM) were pre-incubated (37 °C, 5 min). To initiate the reaction, the NADPH generating system was added to the samples and incubated for specific time points (0, 5, 15, 20, 45, and 60 min). Then, aliquots were taken and reactions terminated in acetonitrile containing IS. After centrifugation, supernatants were analyzed using LC-MS/MS to determine KS15, 5d, or 2d concentrations in samples. Analyte separation was performed using a Kinetex C18 column (100 mm × 2.1 mm, 2.6 μm ID., Phenomenex). The mobile phase solvent A was 0.1% formic acid in water, and solvent B was 0.1% formic acid in acetonitrile. Gradient separation was performed as follows: 0–3 min (10–90% B) and 3.1–8 min (10% B). The flow rate was 0.2 mL/min, and the run time was 8 min for each sample. Electrospray ionization was conducted in positive ion mode at 4 kV. […] Quantitation was performed in the SRM of the [M+H]^+ ion and the related product ion for each test compound and IS: KS-15 (m/z 420 > 169, CE 30 eV), 5d (m/z 359 > 206, CE 20 eV), 2d (m/z 345 > 192, CE 22 eV), and IS (m/z 295 > 100, CE 17 eV).
as §1, with “Kinetic and equilibrium constants for SPR analysis were obtained by global fitting of the Langmuir 1:1 bimolecular kinetic model (ProteOn Manager v.3.1.0.6, Bio-Rad, Hercules, CA, USA).” left out, “The significance level for the analyses was set at p < 0.05.” left out

CYP2C19 = molecular target: T2, CYP2C19 (Homo sapiens, UniProt P33261); assay: Cytochrome P450 inhibition assay (cocktail method, human liver microsomes), omeprazole hydroxylation; format: in vitro ADME
T2 construct: pooled human liver microsomes (HLMs, XTreme 200, XenoTech, Lenexa, KS, USA); tissue XenoTech XTreme 200; host or cells: pooled human liver microsomes
Experimental: as §2, §3, §4

CYP2C9 = molecular target: T3, CYP2C9 (Homo sapiens, UniProt P11712); assay: Cytochrome P450 inhibition assay (cocktail method, human liver microsomes), tolbutamide 4-methylhydroxylation; format: in vitro ADME
T3 construct: pooled human liver microsomes (HLMs, XTreme 200, XenoTech, Lenexa, KS, USA); tissue XenoTech XTreme 200; host or cells: pooled human liver microsomes
Experimental: as §2, §3, §4

CYP2D6 = molecular target: T4, CYP2D6 (Homo sapiens, UniProt P10635); assay: Cytochrome P450 inhibition assay (cocktail method, human liver microsomes), dextromethorphan O-demethylation; format: in vitro ADME
T4 construct: pooled human liver microsomes (HLMs, XTreme 200, XenoTech, Lenexa, KS, USA); tissue XenoTech XTreme 200; host or cells: pooled human liver microsomes
Experimental: as §2, §3, §4

[2] = system: Per2-luciferase knock-in (Per2-Luc-KI) fibroblast cultures; assay: Real-time bioluminescence monitoring of DEX-synchronized Per2-Luc-KI fibroblast cultures; format: cell-based, mouse; details: 20 μM, DEX-synchronized Per2-Luc-KI fibroblasts
Experimental: For real-time bioluminescence monitoring, we used mouse embryonic fibroblast (MEF) cultures established from Per2-LUC-KI mice. […] The medium was then replaced with a recording medium containing 0.1 mM D-luciferin (Promega) along with vehicle (0.1% DMSO), KS15 (20 μM), 5d (20 μM), or 2d (20 μM). Light emission for 2 min at intervals of 20 min was integrated using a dish-type wheeled luminometer (Kronos-Dio, ATTO Cooperation, Tokyo, Japan). Background-subtracted bioluminescence profiles were analyzed using Cosinor analysis software (available at http://www.circadian.org, last accessed on 19 May 2021).
as §1

T4 sequence (P10635 whole entry): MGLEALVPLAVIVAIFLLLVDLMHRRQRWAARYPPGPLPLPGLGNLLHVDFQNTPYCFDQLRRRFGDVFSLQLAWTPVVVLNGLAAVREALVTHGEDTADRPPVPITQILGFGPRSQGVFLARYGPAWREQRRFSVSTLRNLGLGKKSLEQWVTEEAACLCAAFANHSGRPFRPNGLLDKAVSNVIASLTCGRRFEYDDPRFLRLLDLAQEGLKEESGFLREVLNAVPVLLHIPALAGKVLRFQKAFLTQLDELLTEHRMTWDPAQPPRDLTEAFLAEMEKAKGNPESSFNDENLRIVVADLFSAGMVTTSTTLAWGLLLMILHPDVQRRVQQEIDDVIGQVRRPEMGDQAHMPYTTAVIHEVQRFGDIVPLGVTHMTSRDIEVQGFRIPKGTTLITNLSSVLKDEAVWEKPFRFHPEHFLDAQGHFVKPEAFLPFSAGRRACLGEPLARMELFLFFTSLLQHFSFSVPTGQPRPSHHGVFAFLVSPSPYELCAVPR
T2 sequence (P33261 whole entry): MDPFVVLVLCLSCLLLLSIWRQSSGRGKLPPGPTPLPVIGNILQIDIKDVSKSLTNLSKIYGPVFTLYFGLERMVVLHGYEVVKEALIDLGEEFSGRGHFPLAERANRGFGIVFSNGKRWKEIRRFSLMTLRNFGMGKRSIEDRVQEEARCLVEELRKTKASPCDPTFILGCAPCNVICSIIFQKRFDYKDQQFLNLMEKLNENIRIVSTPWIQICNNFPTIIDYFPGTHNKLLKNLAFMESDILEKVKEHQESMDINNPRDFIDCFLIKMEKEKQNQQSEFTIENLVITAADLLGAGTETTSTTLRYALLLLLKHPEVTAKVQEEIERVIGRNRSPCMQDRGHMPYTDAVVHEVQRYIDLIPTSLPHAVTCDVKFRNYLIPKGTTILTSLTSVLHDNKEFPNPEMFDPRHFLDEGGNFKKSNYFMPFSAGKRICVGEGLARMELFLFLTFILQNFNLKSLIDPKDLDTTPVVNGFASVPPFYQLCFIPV
T3 sequence (P11712 whole entry): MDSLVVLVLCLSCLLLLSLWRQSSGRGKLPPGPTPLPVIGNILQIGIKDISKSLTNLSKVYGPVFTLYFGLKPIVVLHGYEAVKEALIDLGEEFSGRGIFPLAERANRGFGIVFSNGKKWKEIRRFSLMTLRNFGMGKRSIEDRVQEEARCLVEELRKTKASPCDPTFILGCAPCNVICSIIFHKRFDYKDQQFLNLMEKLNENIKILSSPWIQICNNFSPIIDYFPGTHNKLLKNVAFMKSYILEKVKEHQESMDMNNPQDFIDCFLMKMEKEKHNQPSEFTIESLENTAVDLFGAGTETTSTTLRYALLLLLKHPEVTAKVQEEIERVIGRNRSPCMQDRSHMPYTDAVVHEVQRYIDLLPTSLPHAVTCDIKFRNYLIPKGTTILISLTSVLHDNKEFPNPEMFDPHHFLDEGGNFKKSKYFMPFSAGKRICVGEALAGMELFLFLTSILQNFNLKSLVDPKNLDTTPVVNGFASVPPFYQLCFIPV

Structure (SMILES): COC(=O)COc1cccc(C(C)=NOCc2cccc(C(F)(F)F)c2)c1 [Compound 5b, Methyl 2-(3-(1-(((3-trifluoromethylbenzyl)oxy)imino)ethyl)phenoxy)acetate]
- Emax (E-box-LUC reporter): 172%

Structure (SMILES): COc1ccc(CON=C(C)c2cccc(OCC(=O)O)c2)cc1 [Compound 2c, 2-(3-(1-(((4-methoxybenzyl)oxy)imino)ethyl)phenoxy)acetic acid]
- EC50 (E-box-LUC reporter): 9.88 µM
- Emax (E-box-LUC reporter): 182%

Structure (SMILES): COC(=O)COc1cccc(C(C)=NOCc2ccc(OC)cc2)c1 [Compound 5c, Methyl 2-(3-(1-(((4-methoxybenzyl)oxy)imino)ethyl)phenoxy)acetate]
- EC50 (E-box-LUC reporter): 6.32 µM
- Emax (E-box-LUC reporter): 152%

Structure (SMILES): COC(=O)COc1cccc(/C(C)=N/OCc2ccc(Br)cc2)c1 [Compound 5a]
- Emax (E-box-LUC reporter): 149%

Structure (SMILES): CCO[C@H](Cc1cccc(/C(C)=N/OCc2ccc(Br)cc2)c1)C(=O)O [KS15, reference compound]
- IC50 (CYP1A2): 14.9 µM
- IC50 at 10 min (CYP3A): 24 µM
- half-life at 1 μM [1]: > 1 h
- IC50 (CYP2C19): 20.2 µM
- IC50 (CYP2C9): 9.1 µM
- IC50 (CYP2D6): 23.1 µM
- Amplitude of cyclic Per2 expression [2]: attenuates amplitude
- Period of the rhythm [2]: did not significantly alter the period

Structure (SMILES): COC(=O)COc1cccc(C(C)=NOCc2ccc(S(C)(=O)=O)cc2)c1 [Compound 5e, Methyl 2-(3-(1-(((4-methylsulfonylbenzyl)oxy)imino)ethyl)phenoxy)acetate]
- Emax (E-box-LUC reporter): 105%

Structure (SMILES): CC(=NOCc1ccc(S(C)(=O)=O)cc1)c1cccc(OCC(=O)O)c1 [Compound 2e, 2-(3-(1-(((4-methylsulfonylbenzyl)oxy)imino)ethyl)phenoxy)acetic acid]
- Emax (E-box-LUC reporter): 98.7%

Structure (SMILES): CC(=NOCc1cccc(C(F)(F)F)c1)c1cccc(OCC(=O)O)c1 [Compound 2b, 2-(3-(1-(((3-trifluoromethylbenzyl)oxy)imino)ethyl)phenoxy)acetic acid]
- Emax (E-box-LUC reporter): 131%

Structure (SMILES): C/C(=N\OCc1ccc(Br)cc1)c1cccc(OCC(=O)O)c1 [Compound 2a]
- EC50 (E-box-LUC reporter): 1.54 µM
- Emax (E-box-LUC reporter): 165%
